Experimental data: BindingDB's records for doi:10.7270/Q2183BCW (D3R/Abbott, 2020)
pIC50: −log10 of the molar value.

Target: Cathepsin S (Homo sapiens, UniProt P25774)
Assay: D3R2024
From the text: D3R2024

Cathepsin S, sequence (P25774 whole entry): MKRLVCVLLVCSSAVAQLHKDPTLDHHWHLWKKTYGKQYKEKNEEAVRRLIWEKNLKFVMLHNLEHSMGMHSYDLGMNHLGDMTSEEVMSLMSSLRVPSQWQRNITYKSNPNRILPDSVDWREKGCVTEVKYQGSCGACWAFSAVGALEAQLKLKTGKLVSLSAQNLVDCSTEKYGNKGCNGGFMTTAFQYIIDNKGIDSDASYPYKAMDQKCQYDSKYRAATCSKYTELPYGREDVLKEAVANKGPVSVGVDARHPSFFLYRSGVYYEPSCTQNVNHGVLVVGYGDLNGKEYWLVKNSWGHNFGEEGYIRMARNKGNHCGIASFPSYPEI

| pIC50 | SMILES |
| --- | --- |
| 5.00 | COC(=O)c1cccc(NC(=O)NC2CCN(c3ccnc(Nc4ccc(F)cc4)n3)C2)c1 (configuration not stated) [TCMDC-133606] |
| 6.15 | COc1cc(Nc2nccc(N3CCC(NC(=O)c4cc5ccccc5s4)C3)n2)cc(OC)c1OC (configuration not stated) [D3RKN_104] |
| 5.00 | COC(=O)c1cccc(NC(=O)NC2CCN(c3ccnc(Nc4ccc(OC)cc4)n3)C2)c1 (configuration not stated) [D3RKN_113] |
| 5.72 | COC(=O)C(Cc1ccccc1)NC(=O)NC1CCN(c2ccnc(Nc3ccc(F)cc3)n2)C1 (configuration not stated) [D3RKN_109] |
| 6.47 | COC(=O)c1cccc(NC(=O)NC2CCN(c3ccnc(Nc4cc(OC)c(OC)c(OC)c4)n3)C2)c1 (configuration not stated) [D3RKN_99] |
| 7.27 | COc1cc(Nc2nccc(N3CCC(NC(=O)c4cccc(NC(C)=O)c4)C3)n2)cc(OC)c1OC (configuration not stated) [D3RKN_114] |
| 5.00 | COc1cc(Nc2nccc(N3CCC(NC(=O)Nc4cc(C)ccc4C)C3)n2)cc(OC)c1OC (configuration not stated) [D3RKN_101] |
| 5.00 | O=C(NC1CCN(c2ccnc(Nc3ccc(F)cc3)n2)C1)c1cc2ccccc2s1 (configuration not stated) [D3RKN_110] |
| 5.24 | N#Cc1cccc(C(=O)NC2CCN(c3ccnc(Nc4ccc(F)cc4)n3)C2)c1 (configuration not stated) [D3RKN_100] |
| 5.33 | COc1ccc(Nc2nccc(N3CCC(NC(=O)c4cccc(C#N)c4)C3)n2)cc1 (configuration not stated) [D3RKN_112] |
| 5.11 | COC(=O)C(NC(=O)NC1CCN(c2ccnc(Nc3ccc(F)cc3)n2)C1)c1ccccc1 (configuration not stated) [D3RKN_106] |
| 5.00 | COc1ccc(Nc2nccc(N3CCC(NC(=O)Nc4cc(C)ccc4C)C3)n2)cc1 (configuration not stated) [D3RKN_115] |
| 7.28 | COc1ccc(Nc2nccc(N3CCC(NS(=O)(=O)c4ccc(NC(C)=O)cc4)C3)n2)cc1 (configuration not stated) [D3RKN_103] |
| 5.00 | Cc1ccc(C)c(NC(=O)NC2CCN(c3ccnc(Nc4ccc(F)cc4)n3)C2)c1 (configuration not stated) [D3RKN_108] |
| 6.74 | COc1cc(Nc2nccc(N3CCC(NC(=O)c4cccc(C#N)c4)C3)n2)cc(OC)c1OC (configuration not stated) [D3RKN_105] |
| 5.62 | COc1ccc(Nc2nccc(N3CCC(NC(=O)c4cccc(NC(C)=O)c4)C3)n2)cc1 (configuration not stated) [D3RKN_111] |
| 6.17 | CCCc1ccc(S(=O)(=O)NC2CCN(c3ccnc(Nc4ccc(OC)cc4)n3)C2)cc1 (configuration not stated) [D3RKN_102] |
